From ChEMBL document CHEMBL1141566, “Synthesis and antitumor evaluation of bis aza-anthracene-9,10-diones and bis aza-anthrapyrazole-6-ones” (2008)
Each block holds one molecule with its values, some of them ahead of it.

Key:
[1] = Ratio of Kapp for synthetic poly(dA-dT)]2 oligonucleotide to Kapp for synthetic poly(dG-dC)]2 oligonucleotide
HT-29 [2] = assay: Cytotoxicity against human HT29 cells after 72 hrs; type: functional; settings: HT-29, 72 h
HT-29 [3] = assay: Effect on apoptosis in human HT29 PI-/AnnV- cells after 6 hrs by biparametric flow cytometric analysis; type: functional; settings: HT-29, 6 h, read-out: LC50 (the source's name)
HT-29 [4] = assay: Effect on apoptosis in human HT29 PI+/AnnV- cells after 6 hrs by biparametric flow cytometric analysis; type: functional; settings: HT-29, 6 h, read-out: LC50 (the source's name)
HT-29 [5] = assay: Effect on apoptosis in human HT29 PI-/AnnV+ cells after 6 hrs by biparametric flow cytometric analysis; type: functional; settings: HT-29, 6 h, read-out: LC50 (the source's name)
HT-29 [6] = assay: Effect on apoptosis in human HT29 PI+/AnnV+ cells after 6 hrs by biparametric flow cytometric analysis; type: functional; settings: HT-29, 6 h, read-out: LC50 (the source's name)
HT-29 [7] = assay: Effect on apoptosis in human HT29 PI-/AnnV- cells after 12 hrs by biparametric flow cytometric analysis; type: functional; settings: HT-29, 12 h, read-out: LC50 (the source's name)
HT-29 [8] = assay: Effect on apoptosis in human HT29 PI+/AnnV- cells after 12 hrs by biparametric flow cytometric analysis; type: functional; settings: HT-29, 12 h, read-out: LC50 (the source's name)
HT-29 [9] = assay: Effect on apoptosis in human HT29 PI-/AnnV+ cells after 12 hrs by biparametric flow cytometric analysis; type: functional; settings: HT-29, 12 h, read-out: LC50 (the source's name)
HT-29 [10] = assay: Effect on apoptosis in human HT29 PI+/AnnV+ cells after 12 hrs by biparametric flow cytometric analysis; type: functional; settings: HT-29, 12 h, read-out: LC50 (the source's name)
HT-29 [11] = assay: Effect on apoptosis in human HT29 PI-/AnnV- cells after 24 hrs by biparametric flow cytometric analysis; type: functional; settings: HT-29, 24 h, read-out: LC50 (the source's name)
HT-29 [12] = assay: Effect on apoptosis in human HT29 PI+/AnnV- cells after 24 hrs by biparametric flow cytometric analysis; type: functional; settings: HT-29, 24 h, read-out: LC50 (the source's name)
HT-29 [13] = assay: Effect on apoptosis in human HT29 PI-/AnnV+ cells after 24 hrs by biparametric flow cytometric analysis; type: functional; settings: HT-29, 24 h, read-out: LC50 (the source's name)
HT-29 [14] = assay: Effect on proapoptotic CD70 gene expression in human HT29 cells after 6 hrs; type: functional
HT-29 [15] = assay: Effect on proapoptotic FAS gene expression in human HT29 cells after 6 hrs; type: functional
HT-29 [16] = assay: Effect on proapoptotic TNFRSF11B gene expression in human HT29 cells after 6 hrs; type: functional
HT-29 [17] = assay: Effect on proapoptotic TNFRSF21 gene expression in human HT29 cells after 6 hrs; type: functional
HT-29 [18] = assay: Effect on proapoptotic CD27 gene expression in human HT29 cells after 6 hrs; type: functional
HT-29 [19] = assay: Effect on proapoptotic TRAF2 gene expression in human HT29 cells after 6 hrs; type: functional
HT-29 [20] = assay: Effect on proapoptotic TRAF3 gene expression in human HT29 cells after 6 hrs; type: functional
HT-29 [21] = assay: Effect on proapoptotic TRAF4 gene expression in human HT29 cells after 6 hrs; type: functional
HT-29 [22] = assay: Effect on proapoptotic FADD gene expression in human HT29 cells after 6 hrs; type: functional
HT-29 [23] = assay: Effect on proapoptotic TRADD gene expression in human HT29 cells after 6 hrs; type: functional
HT-29 [24] = assay: Effect on proapoptotic BAK1 gene expression in human HT29 cells after 6 hrs; type: functional
HT-29 [25] = assay: Effect on proapoptotic BAX gene expression in human HT29 cells after 6 hrs; type: functional
HT-29 [26] = assay: Effect on proapoptotic BCL2 gene expression in human HT29 cells after 6 hrs; type: functional
HT-29 [27] = assay: Effect on apoptotic BCL2L10 gene expression in human HT29 cells after 6 hrs; type: functional
HT-29 [28] = assay: Effect on proapoptotic BCL2L11 gene expression in human HT29 cells after 6 hrs; type: functional
HT-29 [29] = assay: Effect on proapoptotic BID gene expression in human HT29 cells after 6 hrs; type: functional
HT-29 [30] = assay: Effect on proapoptotic BIK gene expression in human HT29 cells after 6 hrs; type: functional
HT-29 [31] = assay: Effect on proapoptotic BNIP1 gene expression in human HT29 cells after 6 hrs; type: functional
HT-29 [32] = assay: Effect on apoptotic BNIP2 gene expression in human HT29 cells after 6 hrs; type: functional
HT-29 [33] = assay: Effect on proapoptotic BNIP3L gene expression in human HT29 cells after 6 hrs; type: functional
HT-29 [34] = assay: Effect on apoptotic MCL1 gene expression in human HT29 cells after 6 hrs; type: functional
HT-29 [35] = assay: Effect on proapoptotic CASP6 gene expression in human HT29 cells after 6 hrs; type: functional
HT-29 [36] = assay: Effect on proapoptotic CASP7 gene expression in human HT29 cells after 6 hrs; type: functional
HT-29 [37] = assay: Effect on proapoptotic CASP8 gene expression in human HT29 cells after 6 hrs; type: functional
HT-29 [38] = assay: Effect on proapoptotic CASP9 gene expression in human HT29 cells after 6 hrs; type: functional
HT-29 [39] = assay: Effect on apoptotic CFLAR gene expression in human HT29 cells after 6 hrs; type: functional
HT-29 [40] = assay: Effect on proapoptotic NOD1 gene expression in human HT29 cells after 6 hrs; type: functional
HT-29 [41] = assay: Effect on proapoptotic CARD6 gene expression in human HT29 cells after 6 hrs; type: functional
HT-29 [42] = assay: Effect on proapoptotic CARD8 gene expression in human HT29 cells after 6 hrs; type: functional
HT-29 [43] = assay: Effect on proapoptotic CIDEB gene expression in human HT29 cells after 6 hrs; type: functional
HT-29 [44] = assay: Effect on apoptotic NOL3 gene expression in human HT29 cells after 6 hrs; type: functional
HT-29 [45] = assay: Effect on apoptotic ABL1 gene expression in human HT29 cells after 6 hrs; type: functional
HT-29 [46] = assay: Effect on apoptotic GADD45A gene expression in human HT29 cells after 6 hrs; type: functional
HT-29 [47] = assay: Effect on proapoptotic TP53 gene expression in human HT29 cells after 6 hrs; type: functional
HT-29 [48] = assay: Effect on proapoptotic BFAR gene expression in human HT29 cells after 6 hrs; type: functional
HT-29 [49] = assay: Effect on apoptotic BRAF gene expression in human HT29 cells after 6 hrs; type: functional
HT-29 [50] = assay: Effect on apoptotic NAIP gene expression in human HT29 cells after 6 hrs; type: functional
HT-29 [51] = assay: Effect on apoptotic BIRC3 gene expression in human HT29 cells after 6 hrs; type: functional
HT-29 [52] = assay: Effect on apoptotic BIRC4 gene expression in human HT29 cells after 6 hrs; type: functional
HT-29 [53] = assay: Effect on apoptotic BIRC8 gene expression in human HT29 cells after 6 hrs; type: functional
HT-29 [54] = assay: Effect on proapoptotic CD70 gene expression in human HT29 cells after 12 hrs; type: functional
HT-29 [55] = assay: Effect on proapoptotic CD27 gene expression in human HT29 cells after 12 hrs; type: functional
HT-29 [56] = assay: Effect on proapoptotic TRAF4 gene expression in human HT29 cells after 12 hrs; type: functional
HT-29 [57] = assay: Effect on proapoptotic TRADD gene expression in human HT29 cells after 12 hrs; type: functional
HT-29 [58] = assay: Effect on proapoptotic BAK1 gene expression in human HT29 cells after 12 hrs; type: functional
HT-29 [59] = assay: Effect on proapoptotic BAX gene expression in human HT29 cells after 12 hrs; type: functional
HT-29 [60] = assay: Effect on apoptotic BCL2L1 gene expression in human HT29 cells after 12 hrs; type: functional
HT-29 [61] = assay: Effect on proapoptotic BCL2 gene expression in human HT29 cells after 12 hrs; type: functional
HT-29 [62] = assay: Effect on apoptotic BCL2L10 gene expression in human HT29 cells after 12 hrs; type: functional
HT-29 [63] = assay: Effect on proapoptotic BCLAF1 gene expression in human HT29 cells after 12 hrs; type: functional
HT-29 [64] = assay: Effect on apoptotic BNIP2 gene expression in human HT29 cells after 12 hrs; type: functional
HT-29 [65] = assay: Effect on proapoptotic BNIP3L gene expression in human HT29 cells after 12 hrs; type: functional
HT-29 [66] = assay: Effect on proapoptotic CASP7 gene expression in human HT29 cells after 12 hrs; type: functional
HT-29 [67] = assay: Effect on proapoptotic CASP9 gene expression in human HT29 cells after 12 hrs; type: functional
HT-29 [68] = assay: Effect on proapoptotic CIDEB gene expression in human HT29 cells after 12 hrs; type: functional
HT-29 [69] = assay: Effect on apoptotic NOL3 gene expression in human HT29 cells after 12 hrs; type: functional
HT-29 [70] = assay: Effect on apoptotic ABL1 gene expression in human HT29 cells after 12 hrs; type: functional
HT-29 [71] = assay: Effect on proapoptotic BFAR gene expression in human HT29 cells after 12 hrs; type: functional
HT-29 [72] = assay: Effect on apoptotic NAIP gene expression in human HT29 cells after 12 hrs; type: functional
HT-29 [73] = assay: Effect on apoptotic BIRC4 gene expression in human HT29 cells after 12 hrs; type: functional
HT-29 [74] = assay: Effect on apoptosis in human HT29 PI+/AnnV+ cells after 24 hrs by biparametric flow cytometric analysis; type: functional; settings: HT-29, 24 h, read-out: LC50 (the source's name)

SMILES: CN(C)CCNc1ccc(NCCCN(C)CCCNc2ccc(NCCN(C)C)c3c2C(=O)c2cnccc2C3=O)c2c1C(=O)c1ccncc1C2=O
Ratio [1]: 2.5
GI50 (HT-29 [2]): 0.3 µM
LC50 (concentration killing 50% of cells) (HT-29 [2]): 62 µM
TGI (HT-29 [2]): 5.1 µM
CC50 (HT-29 [3]): 88.5 µM
CC50 (HT-29 [4]): 3.3 µM
CC50 (HT-29 [5]): 7.4 µM
CC50 (HT-29 [6]): 0.8 µM
CC50 (HT-29 [7]): 83.2 µM
CC50 (HT-29 [8]): 5.3 µM
CC50 (HT-29 [9]): 10.3 µM
CC50 (HT-29 [10]): 1.2 µM
CC50 (HT-29 [11]): 37.1 µM
CC50 (HT-29 [12]): 8.3 µM
CC50 (HT-29 [13]): 36.3 µM
Fold change (HT-29 [14]): 2.2
Fold change (HT-29 [15]): 2.2
Fold change (HT-29 [16]): 2.1
Fold change (HT-29 [17]): 3.7
Fold change (HT-29 [18]): 2.2
Fold change (HT-29 [19]): 2.4
Fold change (HT-29 [20]): 4.5
Fold change (HT-29 [21]): 94
Fold change (HT-29 [22]): 2.4
Fold change (HT-29 [23]): 4.3
Fold change (HT-29 [24]): 4.5
Fold change (HT-29 [25]): 5.3
Fold change (HT-29 [26]): 4.2
Fold change (HT-29 [27]): 3.1
Fold change (HT-29 [28]): 7.7
Fold change (HT-29 [29]): 4.3
Fold change (HT-29 [30]): 5.2
Fold change (HT-29 [31]): 3
Fold change (HT-29 [32]): -2.9
Fold change (HT-29 [33]): 7.4
Fold change (HT-29 [34]): -10
Fold change (HT-29 [35]): 3
Fold change (HT-29 [36]): 6.4
Fold change (HT-29 [37]): 2.5
Fold change (HT-29 [38]): 3
Fold change (HT-29 [39]): 4
Fold change (HT-29 [40]): 4.2
Fold change (HT-29 [41]): -5
Fold change (HT-29 [42]): 4
Fold change (HT-29 [43]): 9.3
Fold change (HT-29 [44]): 4.7
Fold change (HT-29 [45]): 33
Fold change (HT-29 [46]): 3
Fold change (HT-29 [47]): 3
Fold change (HT-29 [48]): 5.4
Fold change (HT-29 [49]): 2.4
Fold change (HT-29 [50]): 9.6
Fold change (HT-29 [51]): 2.5
Fold change (HT-29 [52]): 9.3
Fold change (HT-29 [53]): -2.3
Fold change (HT-29 [54]): 2.2
Fold change (HT-29 [55]): 2.2
Fold change (HT-29 [56]): 23
Fold change (HT-29 [57]): 2.5
Fold change (HT-29 [58]): 4.1
Fold change (HT-29 [59]): 3
Fold change (HT-29 [60]): -5.9
Fold change (HT-29 [61]): -5.9
Fold change (HT-29 [62]): 7.8
Fold change (HT-29 [63]): 136
Fold change (HT-29 [64]): -3.3
Fold change (HT-29 [65]): 3.6
Fold change (HT-29 [66]): 3
Fold change (HT-29 [67]): 8.5
Fold change (HT-29 [68]): 4.4
Fold change (HT-29 [69]): 15
Fold change (HT-29 [70]): 58
Fold change (HT-29 [71]): -2.5
Fold change (HT-29 [72]): 52
Fold change (HT-29 [73]): 2
CC50 (HT-29 [74]): 18.3 µM

SMILES: CCN(CC)CCNc1ccc(NCCCN(C)CCCNc2ccc(NCCN(CC)CC)c3c2C(=O)c2cnccc2C3=O)c2c1C(=O)c1ccncc1C2=O
Ratio [1]: 3.5
GI50 (HT-29 [2]): 4.5 µM
LC50 (concentration killing 50% of cells) (HT-29 [2]): > 100 µM
TGI (HT-29 [2]): 32 µM

Ratio [1]: 5
SMILES: CCN(CC)CCNc1ccc(NCCCN(C)CCCNc2ccc(NCCN(CC)CC)c3c2C(=O)c2ccncc2C3=O)c2c1C(=O)c1cnccc1C2=O
GI50 (HT-29 [2]): > 100 µM

SMILES: CN(C)CCCn1nc2c3c(c(NCCCN(C)CCCNc4ccc5c6c(nn5CCCN(C)C)-c5ccncc5C(=O)c46)ccc31)C(=O)c1cnccc1-2
GI50 (HT-29 [2]): 40 µM
LC50 (concentration killing 50% of cells) (HT-29 [2]): > 100 µM
TGI (HT-29 [2]): > 100 µM
